Measured values published in patent US11472791B2 (Incyte Corporation, priority 2019, dated 2022).

Biological target: CDK2/Cyclin E1 (Homo sapiens (Human), UniProt P24941)
Assay: CDK2/Cyclin E1 HTRF enzyme activity assay
Type: biochemical
Details: 1 mM ATP
Method: Assays are conducted in white 384-well polystyrene plates in a final reaction volume of 8 μL. […] HTRF signals are read after 1 hour at room temperature on a PHERAstar FS plate reader (BMG Labtech). Data is analyzed with IDBS XLFit and GraphPad Prism 5.0 software using a three or four parameter dose response curve to determine IC50 for each compound.

IC50, < 50 nM:
Cc1nc(CNC(C)C)ccc1-n1cc(-c2nc(NC3CCN(S(=O)(=O)C4CC4)CC3)ncc2C#N)cn1 [Example 153, 2-((1-(Cyclopropylsulfonyl)piperidin-4-yl)amino)-4-(1-(6-((isopropylamino)methyl)-2-methylpyridin-3-yl)-1H-pyrazol-4-yl)pyrimidine-5-carbonitrile]
N#Cc1cnc(N[C@H]2CCN(S(=O)(=O)C3CC3)C[C@H]2F)nc1-c1cnn(-c2ccc(CN[C@H]3C[C@@H](C#N)C3)cc2Cl)c1 [Example 154, 4-(1-(2-Chloro-4-((((1s,3s)-3-cyanocyclobutyl)amino)methyl)phenyl)-1H-pyrazol-4-yl)-2-(((3R,4S)-1-(cyclopropylsulfonyl)-3-fluoropiperidin-4-yl)amino)pyrimidine-5-carbonitrile]
C[C@]1(NCc2ccc(-n3cc(-c4nc(N[C@H]5CCN(S(=O)(=O)C6CC6)C[C@H]5F)ncc4C#N)cn3)c(Cl)c2)C[C@H](O)C1 [Example 155, 4-(1-(2-chloro-4-((((1r,3r)-3-hydroxy-1-methylcyclobutyl)amino)methyl)phenyl)-1H-pyrazol-4-yl)-2-(((3R,4S)-1-(cyclopropylsulfonyl)-3-fluoropiperidin-4-yl)amino)pyrimidine-5-carbonitrile]
N#Cc1cnc(N[C@H]2CCN(S(=O)(=O)C3CC3)C[C@H]2F)nc1-c1cnn(-c2ccc(CNCC3(O)CC3)cc2Cl)c1 [Example 156, 4-(1-(2-Chloro-4-((((1-hydroxycyclopropyl)methyl)amino)methyl)phenyl)-1H-pyrazol-4-yl)-2-(((3R,4S)-1-(cyclopropylsulfonyl)-3-fluoropiperidin-4-yl)amino)pyrimidine-5-carbonitrile]
CC(C)(CO)NCc1ccc(-n2cc(-c3nc(NC4CCN(S(C)(=O)=O)CC4)ncc3C#N)cn2)c(Cl)c1 [Example 157, 4-(1-(2-Chloro-4-(((1-hydroxy-2-methylpropan-2-yl)amino)methyl)phenyl)-1H-pyrazol-4-yl)-2-((1-(methylsulfonyl)piperidin-4-yl)amino)pyrimidine-5-carbonitrile]
CS(=O)(=O)N1CCC(Nc2ncc(C#N)c(-c3cnn(-c4ccc(CN[C@]5(C)C[C@H](O)C5)cc4Cl)c3)n2)CC1 [Example 158, 4-(1-(2-Chloro-4-((((1s,3s)-3-hydroxy-1-methylcyclobutyl)amino)methyl)phenyl)-1H-pyrazol-4-yl)-2-((1-(methylsulfonyl)piperidin-4-yl)amino)pyrimidine-5-carbonitrile]
CS(=O)(=O)N1CCC(Nc2ncc(C#N)c(-c3cnn(-c4ccc(CNC5(CO)CC5)cc4Cl)c3)n2)CC1 [Example 159, 4-(1-(2-Chloro-4-(((1-(hydroxymethyl)cyclopropyl)amino)methyl)phenyl)-1H-pyrazol-4-yl)-2-((1-(methylsulfonyl)piperidin-4-yl)amino)pyrimidine-5-carbonitrile]
CC(C)(NCc1ccc(-n2cc(-c3nc(NC4CCN(S(C)(=O)=O)CC4)ncc3C#N)cn2)c(Cl)c1)C(N)=O [Example 160, 2-((3-Chloro-4-(4-(5-cyano-2-((1-(methylsulfonyl)piperidin-4-yl)amino)pyrimidin-4-yl)-1H-pyrazol-1-yl)benzyl)amino)-2-methylpropanamide]
CS(=O)(=O)N1CCC(Nc2ncc(C#N)c(-c3cnn(-c4ccc(CN[C@H]5C[C@H](O)C5)cc4Cl)c3)n2)CC1 [Example 161, 4-(1-(2-Chloro-4-((((1r,3r)-3-hydroxycyclobutyl)amino)methyl)phenyl)-1H-pyrazol-4-yl)-2-((1-(methylsulfonyl)piperidin-4-yl)amino)pyrimidine-5-carbonitrile]
CS(=O)(=O)N1CCC(Nc2ncc(C#N)c(-c3cnn(-c4ccc(CN[C@H]5C[C@@H](O)C5)cc4Cl)c3)n2)CC1 [Example 162, 4-(1-(2-Chloro-4-((((1s,3s)-3-hydroxycyclobutyl)amino)methyl)phenyl)-1H-pyrazol-4-yl)-2-((1-(methylsulfonyl)piperidin-4-yl)amino)pyrimidine-5-carbonitrile]
CO[C@H]1C[C@@H](NCc2ccc(-n3cc(-c4nc(NC5CCN(S(C)(=O)=O)CC5)ncc4C#N)cn3)c(Cl)c2)C1 [Example 163, 4-(1-(2-Chloro-4-((((1s,3s)-3-methoxycyclobutyl)amino)methyl)phenyl)-1H-pyrazol-4-yl)-2-((1-(methylsulfonyl)piperidin-4-yl)amino)pyrimidine-5-carbonitrile]
CS(=O)(=O)N1CCC(Nc2ncc(C#N)c(-c3cnn(-c4ccc(CN[C@H]5C[C@@H](C#N)C5)cc4Cl)c3)n2)CC1 [Example 164, 4-(1-(2-Chloro-4-((((1s,3s)-3-cyanocyclobutyl)amino)methyl)phenyl)-1H-pyrazol-4-yl)-2-((1-(methylsulfonyl)piperidin-4-yl)amino)pyrimidine-5-carbonitrile]
CCS(=O)(=O)N1CCC(Nc2ncc(C#N)c(-c3cnn(-c4ccc(CNc5cnn(C)c5)cc4Cl)c3)n2)CC1 [Example 165, 4-(1-(2-Chloro-4-(((1-methyl-1H-pyrazol-4-yl)amino)methyl)phenyl)-1H-pyrazol-4-yl)-2-((1-(ethylsulfonyl)piperidin-4-yl)amino)pyrimidine-5-carbonitrile]
COC(=O)NC1CCCCC1NCc1ccc(-n2cc(-c3nc(NC4CCN(S(C)(=O)=O)CC4)ncc3C#N)cn2)c(Cl)c1 (stereo not drawn) [Example 166, Methyl (2-((3-chloro-4-(4-(5-cyano-2-((1-(methylsulfonyl)piperidin-4-yl)amino)pyrimidin-4-yl)-1H-pyrazol-1-yl)benzyl)amino)cyclohexyl)carbamate]
COC(=O)N1CCC[C@H](NCc2ccc(-n3cc(-c4nc(NC5CCN(S(C)(=O)=O)CC5)ncc4C#N)cn3)c(Cl)c2)C1 [Example 167, Methyl (S)-3-((3-chloro-4-(4-(5-cyano-2-((1-(methylsulfonyl)piperidin-4-yl)amino)pyrimidin-4-yl)-1H-pyrazol-1-yl)benzyl)amino)piperidine-1-carboxylate]
COC(=O)N1CCC[C@@H](NCc2ccc(-n3cc(-c4nc(NC5CCN(S(C)(=O)=O)CC5)ncc4C#N)cn3)c(Cl)c2)C1 [Example 168, Methyl (R)-3-((3-chloro-4-(4-(5-cyano-2-((1-(methylsulfonyl)piperidin-4-yl)amino)pyrimidin-4-yl)-1H-pyrazol-1-yl)benzyl)amino)piperidine-1-carboxylate]
CC(=O)N1CC[C@H](NCc2ccc(-n3cc(-c4nc(NC5CCN(S(C)(=O)=O)CC5)ncc4C#N)cn3)c(Cl)c2)C1 [Example 169, (S)-4-(1-(4-(((1-Acetylpyrrolidin-3-yl)amino)methyl)-2-chlorophenyl)-1H-pyrazol-4-yl)-2-((1-(methylsulfonyl)piperidin-4-yl)amino)pyrimidine-5-carbonitrile]
CC(=O)N1CC[C@@H](NCc2ccc(-n3cc(-c4nc(NC5CCN(S(C)(=O)=O)CC5)ncc4C#N)cn3)c(Cl)c2)C1 [Example 170, (R)-4-(1-(4-(((1-Acetylpyrrolidin-3-yl)amino)methyl)-2-chlorophenyl)-1H-pyrazol-4-yl)-2-((1-(methylsulfonyl)piperidin-4-yl)amino)pyrimidine-5-carbonitrile]
